Assay results: the supplement of paper PMC10307832

Legend:
Test in all cases: relative viability (nuclei count vs DMSO), 5 days (fraction); higher = more cells survive
NCI-H661 = test system: NCI-H661
Outline: (§1)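 Lung cancer cell lines were seeded in 1536-well plates and dosed by pin tool the next day, with either a single drug or a fixed anchor-drug dose combined with five library-drug doses (not always all listed) spaced in √10 steps. Five days later, one step fixed the cells and stained their nuclei (final 0.05% Triton X-100, 1% formaldehyde, 1 ug/ml Hoechst), and nuclei were counted on 4× images. Relative viability is the nuclei count in treated wells divided by the count in vehicle wells, and each value is the median of duplicate plates.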

NCI-H2342 = test system: NCI-H2342
Outline: as §1

NCI-H1734 = test system: NCI-H1734
Outline: as §1

NCI-H1437 = test system: NCI-H1437
Outline: as §1

LOU-NH91 = test system: LOU-NH91
Outline: as §1

NCI-H522 = test system: NCI-H522
Outline: as §1

NCI-H647 = test system: NCI-H647
Outline: as §1

HCC-827 = test system: HCC-827
Outline: as §1

EKVX = test system: EKVX
Outline: as §1

NCI-H1993 = test system: NCI-H1993
Outline: as §1

NCI-H1355 = test system: NCI-H1355
Outline: as §1

## O=c1cc(N2CCOCC2)oc2c(-c3cccc4c3sc3ccccc34)cccc12 + Cc1cc(Nc2cc(N3CCN(C)CC3)nc(Sc3ccc(NC(=O)C4CC4)cc3)n2)n[nH]1 [Tozasertib] (partner 0.1 µM)
NCI-H661; first compound 0.1 µM
  relative viability: 0.335
NCI-H661; first compound 0.3162 µM
  relative viability: 0.36
NCI-H661; first compound 1 µM
  relative viability: 0.362
NCI-H2342; first compound 0.01 µM
  relative viability: 0.643
NCI-H2342; first compound 0.03162 µM
  relative viability: 0.504
NCI-H2342; first compound 0.1 µM
  relative viability: 0.535
NCI-H2342; first compound 0.3162 µM
  relative viability: 0.555
NCI-H2342; first compound 1 µM
  relative viability: 0.469
NCI-H1734; first compound 0.01 µM
  relative viability: 0.236
NCI-H1734; first compound 0.03162 µM
  relative viability: 0.264
NCI-H1734; first compound 0.1 µM
  relative viability: 0.307
NCI-H1734; first compound 0.3162 µM
  relative viability: 0.259
NCI-H1734; first compound 1 µM
  relative viability: 0.243
NCI-H1437; first compound 0.01 µM
  relative viability: 0.351
NCI-H1437; first compound 0.03162 µM
  relative viability: 0.406
NCI-H1437; first compound 0.1 µM
  relative viability: 0.428
NCI-H1437; first compound 0.3162 µM
  relative viability: 0.431
NCI-H1437; first compound 1 µM
  relative viability: 0.373
LOU-NH91; first compound 0.01 µM
  relative viability: 0.642
LOU-NH91; first compound 0.03162 µM
  relative viability: 0.65
LOU-NH91; first compound 0.1 µM
  relative viability: 0.655
LOU-NH91; first compound 0.3162 µM
  relative viability: 0.697
LOU-NH91; first compound 1 µM
  relative viability: 0.65
NCI-H522; first compound 0.01 µM
  relative viability: 0.548
NCI-H522; first compound 0.03162 µM
  relative viability: 0.607
NCI-H522; first compound 0.1 µM
  relative viability: 0.594
NCI-H522; first compound 0.3162 µM
  relative viability: 0.551
NCI-H522; first compound 1 µM
  relative viability: 0.61
NCI-H647; first compound 0.01 µM
  relative viability: 0.369
NCI-H647; first compound 0.03162 µM
  relative viability: 0.32
NCI-H647; first compound 0.1 µM
  relative viability: 0.262
NCI-H647; first compound 0.3162 µM
  relative viability: 0.295
NCI-H647; first compound 1 µM
  relative viability: 0.226
HCC-827; first compound 0.01 µM
  relative viability: 0.386
HCC-827; first compound 0.03162 µM
  relative viability: 0.435
HCC-827; first compound 0.1 µM
  relative viability: 0.431
HCC-827; first compound 0.3162 µM
  relative viability: 0.426
HCC-827; first compound 1 µM
  relative viability: 0.389
EKVX; first compound 0.01 µM
  relative viability: 0.448
EKVX; first compound 0.03162 µM
  relative viability: 0.332
EKVX; first compound 0.1 µM
  relative viability: 0.441
EKVX; first compound 0.3162 µM
  relative viability: 0.343
EKVX; first compound 1 µM
  relative viability: 0.36
NCI-H1993; first compound 0.01 µM
  relative viability: 0.554
NCI-H1993; first compound 0.03162 µM
  relative viability: 0.581
NCI-H1993; first compound 0.1 µM
  relative viability: 0.569
NCI-H1993; first compound 0.3162 µM
  relative viability: 0.566
NCI-H1993; first compound 1 µM
  relative viability: 0.62
NCI-H1355; first compound 0.01 µM
  relative viability: 0.545
NCI-H1355; first compound 0.03162 µM
  relative viability: 0.59
NCI-H1355; first compound 0.1 µM
  relative viability: 0.552
NCI-H1355; first compound 0.3162 µM
  relative viability: 0.55
NCI-H1355; first compound 1 µM
  relative viability: 0.514
